This is an account of results in ChEMBL document CHEMBL3045356, “Synthesis and biological evaluation of a novel class as antileishmanial agent” (Med Chem Res, 2012).

Series [1] concerns Leishmania major. The series can be described thus: Antileishmanial activity against promastigote stage of Leishmania major MHOM/IL/81/FEBNI infected Swiss albino mouse assessed as inhibition of gangrene in inoculated footpad at 20 umol administered 21 days post infection measured after 5 weeks relative to untreated mouse. In kind it is functional, organism-based.
Series [2] has as its system Leishmania major. The series can be described thus: Antileishmanial activity against promastigote stage of Leishmania major MHOM/IL/81/FEBNI assessed as parasite motility at 10 umol measured every 10 min for 1 hr by light microscopic analysis. The format is functional, organism-based.
The subject of series [3] is Leishmania major. The series can be described thus: Antileishmanial activity against promastigote stage of Leishmania major MHOM/IL/81/FEBNI infected Swiss albino mouse assessed as decrease in cutaneous lesion progression at 20 umol administered 21 days post infection measured after 5 weeks relative to untreated mouse. In kind it is functional, organism-based.
Series [4] deals with Leishmania major. Kind of series: Antileishmanial activity against promastigote stage of Leishmania major MHOM/IL/81/FEBNI infected Swiss albino mouse assessed as inhibition of lesion development in inoculated footpad at 20 umol administered 21 days post infection measured after 5 weeks relative to untreated mouse. In kind it is functional, organism-based.
The test system of series [5] is Leishmania major. Kind of series: Antileishmanial activity against promastigote stage of Leishmania major MHOM/IL/81/FEBNI infected Swiss albino mouse assessed as inhibition of autoamputation of inoculated footpad at 20 umol administered 21 days post infection measured after 5 weeks relative to untreated mouse. In kind it is functional, organism-based.
Series [6] has as its system Leishmania major. Kind of series: Antileishmanial activity against promastigote stage of Leishmania major MHOM/IL/81/FEBNI infected Swiss albino mouse assessed as decrease in parasite number in cutaneous lesion at 20 umol administered 21 days post infection measured after 5 weeks by Giemsa staining. The format is functional, organism-based.
Series [7] has as its system Leishmania major. The series can be described thus: Antileishmanial activity against promastigote stage of Leishmania major MHOM/IL/81/FEBNI assessed as cell viability at 10 umol measured every day for 5 days by light microscopic analysis. In kind it is functional, organism-based.
Series [8] concerns Mus musculus. Kind of series: Toxicity in Mus musculus Swiss albino (mouse) infected with promastigote stage of Leishmania major MHOM/IL/81/FEBNI assessed as severe irritation of epidermis at 20 umol administered 21 days post infection measured after 5 weeks. In kind it is organism-based. The conditions noted are these: in vivo, 840 h.
The test system of series [9] is Leishmania major. Kind of series: Antileishmanial activity against promastigote stage of Leishmania major MHOM/IL/81/FEBNI infected Swiss albino mouse assessed as decrease in parasite-induced inflammatory reaction in cutaneous lesion at 20 umol administered 21 days post infection measured after 5 weeks by Giemsa staining. In kind it is functional, organism-based.

Series [10] concerns Leishmania major. The series can be described thus: Antileishmanial activity against promastigote stage of Leishmania major MHOM/IL/81/FEBNI infected Swiss albino mouse assessed as decrease in swelling and redness of inoculated footpad at 20 umol administered 21 days post infection measured after 5 weeks. In kind it is functional, organism-based.
Series [11] relates to Mus musculus. The series can be described thus: Toxicity in Mus musculus Swiss albino (mouse) infected with promastigote stage of Leishmania major MHOM/IL/81/FEBNI assessed as vascular thrombosis at 20 umol administered 21 days post infection measured after 5 weeks. The format is organism-based. Particulars: in vivo, 840 h.
Series [12] concerns Mus musculus. Kind of series: Toxicity in Mus musculus Swiss albino (mouse) infected with promastigote stage of Leishmania major MHOM/IL/81/FEBNI assessed as deposition of haemosidrin in macrophages at 20 umol administered 21 days post infection measured after 5 weeks. Particulars: in vivo, 840 h. In kind it is organism-based.

The source made the active and inactive calls. No cut-off for these calls is given here.

Take `COc1cc(C2NC(=S)NC(C)=C2C(=O)NNC(=O)c2ccccc2O)cc(OC)c1OC` (stereo unspecified): the inhibition result with Leishmania major [1] and with Leishmania major [4] was “inactive” each time. Also, the outcome with Leishmania major [2], with Leishmania major [3] and with Leishmania major [7] was Active. The “inhibition of footpad autoamputation (active/not active)” value (shortened to “inhibition … (active/not active)”) with Leishmania major [5] was “inactive”. Moreover, the outcome in the series on Leishmania major [6] was inactive.

In the case of `CC1=C(C(=O)NNC(=O)c2ccccc2O)C(c2ccc(N(C)C)cc2)NC(=O)N1` (stereo unspecified), the inhibition result with Leishmania major [1] and in the series on Leishmania major [4] was “inactive” in each case. Further, the outcome with Leishmania major [2], in the series with Leishmania major [3] and in the series on Leishmania major [7] was Active. Also, in the series with Leishmania major [5], the “inhibition … (active/not active)” value is “inactive”. For the same molecule, in the series with Leishmania major [6], the result was inactive.

For the molecule `C/C=C/C(=O)NNC(=O)C1=C(C)NC(=S)NC1c1cccc([N+](=O)[O-])c1` (stereo unspecified), the outcome with Leishmania major [2], in the series on Leishmania major [9], in the series on Leishmania major [10], in the series with Leishmania major [6] and with Leishmania major [7] was Active. Moreover, the Activity result in the series with Mus musculus [8] is given as “Non-toxic”.

Turning to `CC(=O)Nc1ccc(NC(=O)C2=C(C)NC(=O)NC2c2ccc(N(C)C)cc2)cc1` (stereo unspecified), the outcome with Leishmania major [2], in the series on Leishmania major [3] and in the series on Leishmania major [7] was Active. The Activity result in the series on Mus musculus [11], in the series on Mus musculus [8] and in the series with Mus musculus [12] was “Toxic” throughout. Moreover, the “inhibition … (active/not active)” value in the series with Leishmania major [5] was “Active”. Further, the outcome in the series with Leishmania major [6] was inactive.

Take `CC1=C(C(=O)NNC(=O)c2ccccc2O)C(c2ccc(N(C)C)cc2)NC(=S)N1` (stereo unspecified): the result with Leishmania major [2], with Leishmania major [3] and in the series on Leishmania major [7] was Active. In addition, the “inhibition … (active/not active)” value in the series with Leishmania major [5] is “Active”. Besides, the outcome in the series with Leishmania major [6] was inactive.

For the molecule `CC1=C(C(=O)N(CCCl)CCCl)C(c2cccc([N+](=O)[O-])c2)NC(=S)N1` (stereo unspecified), the outcome with Leishmania major [2], with Leishmania major [9], with Leishmania major [10], in the series with Leishmania major [6] and with Leishmania major [7] was Active. Moreover, the Activity entry in the series with Mus musculus [8] was “Non-toxic”.

As for `CC1=C(C(=O)N(CCO)CCO)C(c2cccc([N+](=O)[O-])c2)NC(=S)N1` (stereo unspecified), the result in the series with Leishmania major [2], in the series on Leishmania major [3] and with Leishmania major [7] was Active. Also, in the series on Leishmania major [5], the “inhibition … (active/not active)” value was “Active”. Besides, in the series with Leishmania major [6], the result was inactive.

As to `CC1=C(C(=O)NNC(=O)c2ccccc2O)C(c2cccc([N+](=O)[O-])c2)NC(=O)N1` (stereo unspecified), the result in the series on Leishmania major [2], in the series on Leishmania major [9], in the series with Leishmania major [10], with Leishmania major [6] and in the series with Leishmania major [7] was Active. The Activity entry in the series on Mus musculus [8] is “Toxic”.

In the case of `CC1=C(C(=O)NNC(=O)c2ccccc2O)C(c2cccc([N+](=O)[O-])c2)NC(=S)N1` (stereo unspecified), the result in the series on Leishmania major [2], in the series with Leishmania major [9], in the series on Leishmania major [10], in the series on Leishmania major [6] and in the series with Leishmania major [7] was Active. Further, the Activity result in the series on Mus musculus [8] is “Toxic”.
